From the NIST ThermoML archive (doi:10.1021/acs.jced.5b00627)
Numbers after ± are expanded uncertainties.

Assays:
[1] = for Normal melting temperature: Crystal, DTA; for viscosity: 100 kPa, Capillary tube (Ostwald / Ubbelohde) method; for viscosity / speed of sound / mass density: Liquid; for speed of sound / mass density: 101.33 kPa; for speed of sound: Sing-around technique in a fixed-path interferometer; for mass density: Vibrating tube method
[2] = mn = molality of the nth substance listed, in mol/kg; details: 100 kPa, Liquid; for viscosity: Capillary tube (Ostwald / Ubbelohde) method; for speed of sound: Frequency=3 MHz, Sing-around technique in a fixed-path interferometer; for mass density: Vibrating tube method

COc1cc(-c2cc(-c3ccc(Cl)cc3)[nH]c(=O)c2C#N)ccc1O
Details	Normal melting temperature [°C]
[1]	328.34 ± 1.8

COc1cc(-c2cc(-c3ccc(O)cc3)[nH]c(=O)c2C#N)ccc1O
Details	Normal melting temperature [°C]
[1]	326.33 ± 1.8

COc1cc(-c2cc(-c3ccccc3)[nH]c(=O)c2C#N)ccc1O
Details	Normal melting temperature [°C]
[1]	343.12 ± 1.8

COc1cc(-c2cc(-c3ccccc3O)[nH]c(=O)c2C#N)ccc1O
Details	Normal melting temperature [°C]
[1]	234.49 ± 1.8

COc1cc(-c2cc(-c3ccc(Cl)cc3)[nH]c(=O)c2C#N)ccc1O + C[S+](C)[O-]
[2]
Details	mass density, 298.15 K [kg/m3]	mass density, 308.15 K [kg/m3]	mass density, 318.15 K [kg/m3]	speed of sound, 298.15 K [m/s]	speed of sound, 308.15 K [m/s]	speed of sound, 318.15 K [m/s]	viscosity, 298.15 K [mPa·s]	viscosity, 308.15 K [mPa·s]	viscosity, 318.15 K [mPa·s]
m1 = 0.01	1096.42 ± 1	1086.43 ± 1	1076.43 ± 1	1486.1 ± 1.3	1452.4 ± 1.3	1418.9 ± 1.3	1.954 ± 0.35	1.545 ± 0.28	1.264 ± 0.23
m1 = 0.02	1097.3 ± 1	1087.47 ± 1	1077.19 ± 1	1487.2 ± 1.3	1453.4 ± 1.3	1419.9 ± 1.3	1.993 ± 0.36	1.571 ± 0.28	1.294 ± 0.23
m1 = 0.04	1098.53 ± 1	1088.83 ± 1	1078.52 ± 1	1488.4 ± 1.3	1454.7 ± 1.3	1421 ± 1.3	2.037 ± 0.37	1.614 ± 0.29	1.324 ± 0.24
m1 = 0.06	1099.79 ± 1	1089.98 ± 1	1079.89 ± 1	1489.6 ± 1.3	1455.9 ± 1.3	1422.2 ± 1.3	2.081 ± 0.38	1.655 ± 0.3	1.355 ± 0.25
m1 = 0.08	1100.99 ± 1	1091.08 ± 1	1080.99 ± 1	1490.5 ± 1.3	1456.7 ± 1.3	1423.2 ± 1.3	2.129 ± 0.39	1.699 ± 0.31	1.391 ± 0.25
m1 = 0.1	1102.29 ± 1	1092.32 ± 1	1082.35 ± 1	1491.1 ± 1.3	1457.6 ± 1.3	1424.5 ± 1.3	2.172 ± 0.39	1.73 ± 0.31	1.427 ± 0.26

COc1cc(-c2cc(-c3ccc(O)cc3)[nH]c(=O)c2C#N)ccc1O + C[S+](C)[O-]
[2]
Details	mass density, 298.15 K [kg/m3]	mass density, 308.15 K [kg/m3]	mass density, 318.15 K [kg/m3]	speed of sound, 298.15 K [m/s]	speed of sound, 308.15 K [m/s]	speed of sound, 318.15 K [m/s]	viscosity, 298.15 K [mPa·s]	viscosity, 308.15 K [mPa·s]	viscosity, 318.15 K [mPa·s]
m1 = 0.01	1096.12 ± 1	1086.44 ± 1	1076.45 ± 1	1486.3 ± 1.3	1452.4 ± 1.3	1419 ± 1.3	1.885 ± 0.34	1.544 ± 0.28	1.265 ± 0.23
m1 = 0.02	1097.17 ± 1	1087.19 ± 1	1077.22 ± 1	1487.3 ± 1.3	1453.2 ± 1.3	1420.1 ± 1.3	1.963 ± 0.35	1.576 ± 0.29	1.312 ± 0.24
m1 = 0.04	1098.34 ± 1	1088.48 ± 1	1078.49 ± 1	1488.9 ± 1.3	1454.5 ± 1.3	1421.5 ± 1.3	2.06 ± 0.37	1.623 ± 0.29	1.364 ± 0.25
m1 = 0.06	1099.52 ± 1	1089.69 ± 1	1079.59 ± 1	1490.6 ± 1.3	1455.6 ± 1.3	1422.7 ± 1.3	2.144 ± 0.39	1.663 ± 0.3	1.392 ± 0.25
m1 = 0.08	1100.69 ± 1	1090.67 ± 1	1080.74 ± 1	1492 ± 1.3	1456.5 ± 1.3	1424 ± 1.3	2.243 ± 0.41	1.704 ± 0.31	1.421 ± 0.26
m1 = 0.1	1101.86 ± 1	1091.98 ± 1	1081.94 ± 1	1493.7 ± 1.3	1457.4 ± 1.3	1425.1 ± 1.3	2.323 ± 0.42	1.729 ± 0.31	1.462 ± 0.27

COc1cc(-c2cc(-c3ccccc3)[nH]c(=O)c2C#N)ccc1O + C[S+](C)[O-]
[2]
Details	mass density, 298.15 K [kg/m3]	mass density, 308.15 K [kg/m3]	mass density, 318.15 K [kg/m3]	speed of sound, 298.15 K [m/s]	speed of sound, 308.15 K [m/s]	speed of sound, 318.15 K [m/s]	viscosity, 298.15 K [mPa·s]	viscosity, 308.15 K [mPa·s]	viscosity, 318.15 K [mPa·s]
m1 = 0.01	1096.02 ± 1	1086.02 ± 1	1076.08 ± 1	1485.9 ± 1.3	1451.9 ± 1.3	1418.1 ± 1.3	1.876 ± 0.34	1.525 ± 0.28	1.242 ± 0.23
m1 = 0.02	1096.69 ± 1	1086.78 ± 1	1076.69 ± 1	1486.8 ± 1.3	1452.8 ± 1.3	1419.1 ± 1.3	1.916 ± 0.35	1.562 ± 0.28	1.276 ± 0.23
m1 = 0.04	1097.59 ± 1	1087.93 ± 1	1077.85 ± 1	1488 ± 1.3	1453.9 ± 1.3	1420.5 ± 1.3	1.976 ± 0.36	1.603 ± 0.29	1.319 ± 0.24
m1 = 0.06	1098.59 ± 1	1088.74 ± 1	1078.84 ± 1	1489.1 ± 1.3	1455 ± 1.3	1421.6 ± 1.3	2.02 ± 0.37	1.638 ± 0.3	1.345 ± 0.24
m1 = 0.08	1099.69 ± 1	1089.59 ± 1	1079.75 ± 1	1490.3 ± 1.3	1456 ± 1.3	1422.6 ± 1.3	2.063 ± 0.37	1.668 ± 0.3	1.37 ± 0.25
m1 = 0.1	1100.84 ± 1	1090.64 ± 1	1080.75 ± 1	1491 ± 1.3	1456.8 ± 1.3	1423.7 ± 1.3	2.107 ± 0.38	1.697 ± 0.31	1.41 ± 0.26

COc1cc(-c2cc(-c3ccccc3O)[nH]c(=O)c2C#N)ccc1O + C[S+](C)[O-]
[2]
Details	mass density, 298.15 K [kg/m3]	mass density, 308.15 K [kg/m3]	mass density, 318.15 K [kg/m3]	speed of sound, 298.15 K [m/s]	speed of sound, 308.15 K [m/s]	speed of sound, 318.15 K [m/s]	viscosity, 298.15 K [mPa·s]	viscosity, 308.15 K [mPa·s]	viscosity, 318.15 K [mPa·s]
m1 = 0.01	1096.09 ± 1	1086.41 ± 1	1076.4 ± 1	1486 ± 1.3	1452.1 ± 1.3	1418.6 ± 1.3	1.88 ± 0.34	1.535 ± 0.28	1.247 ± 0.23
m1 = 0.02	1097.16 ± 1	1087.16 ± 1	1077.18 ± 1	1487 ± 1.3	1453.1 ± 1.3	1419.5 ± 1.3	1.958 ± 0.35	1.57 ± 0.28	1.287 ± 0.23
m1 = 0.04	1098.32 ± 1	1088.47 ± 1	1078.47 ± 1	1488.6 ± 1.3	1454.2 ± 1.3	1420.8 ± 1.3	2.037 ± 0.37	1.608 ± 0.29	1.327 ± 0.24
m1 = 0.06	1099.5 ± 1	1089.66 ± 1	1079.56 ± 1	1490.2 ± 1.3	1455.2 ± 1.3	1422 ± 1.3	2.124 ± 0.38	1.645 ± 0.3	1.359 ± 0.25
m1 = 0.08	1100.68 ± 1	1090.65 ± 1	1080.71 ± 1	1491.7 ± 1.3	1456.3 ± 1.3	1423 ± 1.3	2.201 ± 0.4	1.685 ± 0.31	1.399 ± 0.25
m1 = 0.1	1101.83 ± 1	1091.96 ± 1	1081.9 ± 1	1493.5 ± 1.3	1457 ± 1.3	1424.3 ± 1.3	2.301 ± 0.42	1.716 ± 0.31	1.458 ± 0.26

C[S+](C)[O-] [dimethyl sulfoxide]
[1]
Details	mass density [kg/m3]	speed of sound [m/s]	viscosity [mPa·s]
298.15 K	1095.28 ± 1	1484.8 ± 1.3	1.814 ± 0.33
308.15 K	1085.23 ± 1	1450.9 ± 1.3	1.472 ± 0.27
318.15 K	1075.19 ± 1	1417.4 ± 1.3	1.176 ± 0.21

C[S+](C)[O-] [dimethyl sulfoxide] + COc1cc(-c2cc(-c3ccc(Cl)cc3)[nH]c(=O)c2C#N)ccc1O
[2], m2 = 0
Details	mass density [kg/m3]	speed of sound [m/s]	viscosity [mPa·s]
298.15 K	1095.28 ± 1	1484.8 ± 1.3	1.814 ± 0.33
308.15 K	1085.23 ± 1	1450.9 ± 1.3	1.472 ± 0.27
318.15 K	1075.19 ± 1	1417.4 ± 1.3	1.176 ± 0.21

C[S+](C)[O-] [dimethyl sulfoxide] + COc1cc(-c2cc(-c3ccc(O)cc3)[nH]c(=O)c2C#N)ccc1O
[2], m2 = 0
Details	mass density [kg/m3]	speed of sound [m/s]	viscosity [mPa·s]
298.15 K	1095.28 ± 1	1484.8 ± 1.3	1.814 ± 0.33
308.15 K	1085.23 ± 1	1450.9 ± 1.3	1.472 ± 0.27
318.15 K	1075.19 ± 1	1417.4 ± 1.3	1.176 ± 0.21

C[S+](C)[O-] [dimethyl sulfoxide] + COc1cc(-c2cc(-c3ccccc3)[nH]c(=O)c2C#N)ccc1O
[2], m2 = 0
Details	mass density [kg/m3]	speed of sound [m/s]	viscosity [mPa·s]
298.15 K	1095.28 ± 1	1484.8 ± 1.3	1.814 ± 0.33
308.15 K	1085.23 ± 1	1450.9 ± 1.3	1.472 ± 0.27
318.15 K	1075.19 ± 1	1417.4 ± 1.3	1.176 ± 0.21

C[S+](C)[O-] [dimethyl sulfoxide] + COc1cc(-c2cc(-c3ccccc3O)[nH]c(=O)c2C#N)ccc1O
[2], m2 = 0
Details	mass density [kg/m3]	speed of sound [m/s]	viscosity [mPa·s]
298.15 K	1095.28 ± 1	1484.8 ± 1.3	1.814 ± 0.33
308.15 K	1085.23 ± 1	1450.9 ± 1.3	1.472 ± 0.27
318.15 K	1075.19 ± 1	1417.4 ± 1.3	1.176 ± 0.21
